Measured values from article PMC4988494 (Nature, 2015).

Assays:
[1] = molecular target: A. niger Fdc^UbiX (A. niger Fdc1) (Aspergillus niger, UniProt A2QHE5); assay: UV-Vis and activity, reversible inhibition; format: biochemical; settings: prFMN-loaded enzyme
[2] = molecular target: Aspergillus niger Fdc1 (Aspergillus niger) (UniProt A2QHE5); assay: native MS

Compound | UV-Vis and activity, reversible inhibition [1] | stoichiometry N [2]
O=CCc1ccccc1 [phenylacetaldehyde] | incubation with phenylpyruvate or phenylacetaldehyde leads to reversible enzyme inhibition | 
Aspergillus niger Fdc1 (from UniProt A2QHE5 1-500) (enzyme) |  | 2
